# Results published in patent US10512667B2, “Compositions and methods for treating conditions related to adrenocortical activity and/or excessive steroid production” (The Regents of the University of Michigan, priority 2017, dated 2019).
# “Also recorded” adds a separate entry of the source.
# Key:
# H295R cells [1] = experiment: Resazurin reducing potential; type: cell-based; details: 32 μM ATR-101
# Method: FIG. 4F: […] The cells were cultured with DMSO vehicle or 32 μM ATR-101 alone, or together with 2 mM MβCD. Resazurin fluorescence intensity was measured using a microplate reader at the indicated times at 37 C. The background signal of wells without resazurin was subtracted. […] DMSO control, *P<0.05).
# H295R cells [2] = experiment: Cholesterol crystallization and extracellular cholesterol associated with cells; type: cell-based
# Method: To quantify cholesterol crystallization, experiments were conducted that measured the total extracellular cholesterol that was associated with the cells. After culturing cells with the indicated compounds, the culture medium was removed. Medium lacking cholesterol was added to the cells, and the extracellular cholesterol that was released into the wash medium was collected after 30 seconds. To establish if the cholesterol that was released from the cells was exported by ABCA1, the wash step was performed in parallel using media with and without 50 μM glibenclamide, which inhibits ABCA1 activity. The total amount of cell-associated cholesterol that was released into the wash medium was measured using a fluorometric enzyme-linked assay (Cayman Chemical). Cholesterol esters were hydrolyzed using cholesterol esterase. Cholesterol was oxidized by cholesterol oxidase, producing hydrogen peroxide. The hydrogen peroxide was reacted with 10-acetyl-3,7-dihydroxyphenoxazine (ADHP) in the presence of horseradish peroxidase to produce resorufin. Resorufin fluorescence was measured using 555 nm exitation and 590 nm emission wavelengths in a SpectraMax M5 microplate reader (Molecular Devices).
# The medium was removed and replaced with 50 μl serum-free medium supplemented with 5 μg/mL apo-AI (without or with 50 μM glyburide to detect ABCA1 transporter-dependent efflux) for either 30 sec or 1 h at 37 C in 5% CO2 atmosphere. After the indicated time, the supernatant, was transferred to a new 96-well plate and a fluorometric-base cholesterol detection assay cocktail was added.
# H295R cells [3] = experiment: Caspase 3/7 activity (Apo-ONE); type: cell-based; details: H295R cells
# Method: (§1) The samples were incubated for 18 h at room temperature in the dark. The fluorescence was measured using a SpectraMax M5 microplate reader with a 0.5 s acquisition time.
# BD140C cells [4] = experiment: Caspase 3/7 activity (Apo-ONE); type: cell-based
# Method: as §1
# HSD3B2 = experiment: Transcript measurement by qPCR in H295R cells; type: cell-based; details: H295R cells cultured with ATR-101
# Method: (§2) mRNA was isolated (Qiagen), and was reverse transcribed using the Transcriptor First Strand cDNA synthesis kit (Roche). The relative amounts of cDNAs corresponding to the indicated transcripts were quantified using qPCR assays with specific primers (Table 2).
# (§3) H295R cells were seeded in 6-well tissue culture plates (Corning #3506) at a density of 5 X105 per well. After 48 h, the compound(s) indicated were added, and the cells were cultured for the indicated time. The cells were harvested in 1.35 ml culture medium with trypsin. The cells were collected by centrifugation and lysed in 350 μl of RLT buffer (Qiagen) with β-mercaptoethanol. mRNA extraction and DNase treatment were performed according to the manufacturer's protocol (Qiagen). All RNA samples had 260/280 ratios greater than 1.5. The same amount of RNA ranging from 0.1 to 0.5 μg was used for reverse transcription using the Roche Transcriptor First Strand cDNA synthesis kit (Roche #04897030001) using the manufacturer's protocol. SYBR Green I-based real-time qPCR assays were performed using a Roche LightCycler480 instrument. The levels of transcripts in different samples were normalized by the levels of RPL9 transcripts.
# CHOP = experiment: Transcript measurement by qPCR in H295R cells; type: cell-based; details: 4 h
# Method: as §2, §3
# ABCA1 = experiment: Transcript measurement by qPCR in H295R cells; type: cell-based
# Method: as §2, §3
# ACAT = details: cited from earlier work
# ACC cell xenografts = details: nude mice; cited from earlier work
# cholesterol-rich tissues = details: cynomologous monkeys; cited from earlier work
# H295R cells [5] = experiment: Visualization of cholesterol levels by filipin III binding; type: cell-based; details: H295R cells; for cholesterol level / accumulation (filipin III binding), compound alone: serum-containing medium
# In short: (§4)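 Cells adhered 48 h, treated with compounds, fixed in 4% paraformaldehyde 20 min, then stained with 100 μg/ml filipin III for 2 h at 37 C in the dark and imaged. Esterification visualized after 2 h culture with 1 μM NBD-cholesterol following compound incubation.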
# BD140C cells [6] = experiment: as above; type: cell-based; details: 4 h
# In short: as §4
smiles,measurement,setting,value
"CC(C)c1cccc(C(C)C)c1NC(=O)NCC1(c2ccc(N(C)C)cc2)CCCC1.Cl [ATR-101, N-(2,6-bis(1-methylethyl)phenyl)-N′-((1-(4-(dimethylamino)phenyl)cyclopentyl)methyl)urea hydrochloride]",resazurin fluorescence,H295R cells [1],sustained increase in resazurin fluorescence
same,"cholesterol crystallization at the plasma membrane, compound alone","H295R cells [2]; 40 μM ATR-101, 24 h, hydrochloride",associated with crystals that emanated from the cell membrane; also recorded: cholesterol crystallization at the plasma membrane
same,total extracellular cholesterol associated with cells,"H295R cells [2]; 4 h, 100 μM ATR-101 or 40 μM cholesterol",increased the total extracellular cholesterol
same,time after ATR-101 addition at which caspase activation was detected,H295R cells [3]; 100 μM ATR-101,15 min
same,"caspase 3/7 activity, compound alone","H295R cells [3]; serum-containing medium, 4 h",increased the caspase 3/7 activity
same,"caspase 3/7 activity, compound alone","H295R cells [3]; serum-containing medium, 24 h",increased the caspase 3/7 activities
same,"caspase 3/7 activity, compound alone","H295R cells [3]; serum-free medium, 4 h",caused ATP depletion and caspases activation with the same potency
same,"caspase 3/7 activity, compound alone",BD140C cells [4]; 4 h,increased the caspase 3/7 activity
same,"caspase 3/7 activity, compound alone",BD140C cells [4]; 24 h,increased the caspase 3/7 activities
same,HSD3B2 transcript level,HSD3B2,reduced
same,CHOP transcript level,CHOP,activated
same,ABCA1 transcript level,ABCA1; 4 h,inhibited
same,ABCA1 transcript level,ABCA1; within an hour after addition,reduced
same,ACAT activity,ACAT,inhibit ACAT activity
same,establishment and growth of ACC cell xenografts,ACC cell xenografts,inhibits the establishment and impedes the growth
same,tissue distribution of toxicity,cholesterol-rich tissues,"limited to cholesterol-rich tissues, including the adrenal cortex, the corpus luteum, and sebaceous glands"
same,"cholesterol level / accumulation (filipin III binding), compound alone",H295R cells [5]; 24 h,increase in intracellular cholesterol
same,"cholesterol level / accumulation (filipin III binding), compound alone","H295R cells [5]; up to 4 h, hydrochloride",caused cholesterol accumulation in or near the plasma membrane; also recorded: increase in cholesterol accumulation in the plasma membrane; also recorded: higher levels of filipin III binding to the plasma membrane
same,"cholesterol level (filipin III binding), compound alone","H295R cells [5]; serum-free medium containing apoA-I, 4 h, hydrochloride",increased the level of cholesterol in intracellular membranes; also recorded: increased the cholesterol levels; also recorded: higher cholesterol levels
same,"cholesterol level / accumulation (filipin III binding), compound alone",BD140C cells [6],caused cholesterol accumulation in or near the plasma membrane
